Data taken from patent US20100247489A1, “USE OF A COMPOSITION MADE OF MINERAL NUTRIENTS AND OPTIONALLY ACETOGENIC AND/OR BUTYROGENIC BACTERIA IN ORDER TO AVOID OR REDUCE THE FORMATION OF GAS IN THE LARGE INTESTINE OF A MAMMAL AND THE RESULTING ABDOMINAL PROBLEMS” (priority 2006, published 2010).

How the values were obtained:
[1] = system: Feces samples from 20 persons; test: Incubation of homogenized feces samples with fructose and minerals, gas-meter (Example 3); set-up: species or system human; settings: 1 g fructose per 100 g of feces; for reduction in the amount of gas, in words: 20 feces samples; for amounts of gas: incubated at 37°, control 150 ml
Description: The incubation containers were all added with 1 g fructose per 100 g of feces, and additionally with 1. Selenium 20 μg; 2. 40 μg tungsten, 3. […] 20 μg Selenium plus 40 μg molybdenum; 6. 40 μg Selenium plus 20 μg tungsten plus 1 drop multivitamin solution “Multibionta”, 7. 40 μg Selenium plus 20 μg tungsten plus 1 drop multivitamin solution “Multibionta” plus 1 mg of iron plus 20 μg nickel. A control tank was added only with fructose.
The incubation containers were fitted with a gas-meter, sealed gas-tight and incubated at 37°.

meteorism = test: Person with meteorism after fiber-rich meals (Examples 15 and 16); assay type: in vivo, human; settings: 1.5 mg three times daily in water, after one week of treatment
Description: A person who suffers from meteorism after eating fiber-rich meals is treated three times daily with 1.5 mg of sodium tungstate, which is dissolved in water administered with the drinking fluid during the main meals.
A person who suffers from meteorism after eating fiber-rich meals is treated three times daily with 1.5 mg of sodium tungstate, which is dissolved in 100 ml water with the addition of 100 mg phytic acid and is allowed to rest for 30 minutes, and is administered to the main meals with the drinking fluid.

| Compound | reduction in the amount of gas, in words [1] | amounts of gas [1] | meteorism (meteorism) |
| --- | --- | --- | --- |
| [W] [W, tungsten] | significant gas reduction | 100 mL |  |
| [Na+].[Na+].[O]=[W](=[O])([O-])[O-] [sodium tungstate] |  |  | significantly decreases |
| Selenium | significant gas reduction | 110 mL |  |
